From ChEMBL document CHEMBL1135988, “Synthesis and biological evaluation of new citrate-based siderophores as potential probes for the mechanism of iron uptake in mycobacteria” (2002)

Test system: Mycobacterium avium subsp. paratuberculosis
Assay: Ability to act as growth factor for Mycobacterium paratuberculosis at 2.4 uM concentration, expressed as growth index
Assay type: functional, mycobacteria paratuberculosis

| SMILES | GI |
| --- | --- |
| CCCCC/C=C/C(=O)N(O)CCCNC(=O)CC(O)(CC(=O)NCCCN(O)C(=O)/C=C/CCCCC)C(=O)OC(C)(C)C | 0.69 |
| COC(=O)[C@H](CCCCN(O)C(=O)/C=C/c1ccccc1)NC(=O)CC(O)(CC(=O)N[C@@H](CCCCN(O)C(=O)/C=C/c1ccccc1)C(=O)OC)C(=O)O | 2.5 |
| O=C(CC(O)(CC(=O)NCCCN(O)C(=O)/C=C/c1ccccc1)C(=O)O)NCCCN(O)C(=O)/C=C/c1ccccc1 | 0.76 |
| CCCCC/C=C/C(=O)N(O)CCCNC(=O)CC1(O)CC(=O)N(CCCN(O)C(=O)/C=C/CCCCC)C1=O (centres undefined) | 4.6 |
| CCCCCCCCCCCCC/C=C/C(=O)N(O)CCCC[C@H](NC(=O)[C@@H]1COC(c2ccccc2O)=N1)C(=O)OC(C(C)C)C(C)C(=O)N[C@H]1CCCCN(O)C1=O (some centres undefined) | 1 |
| CC(C)(C)OC(=O)C(O)(CC(=O)NCCCN(O)C(=O)/C=C/c1ccccc1)CC(=O)NCCCN(O)C(=O)/C=C/c1ccccc1 | 4.6 |
| O=C(CC(O)(CC(=O)NCCCCN(O)C(=O)/C=C/c1ccccc1)C(=O)O)NCCCCN(O)C(=O)/C=C/c1ccccc1 | 1.5 |
| CCCCC/C=C/C(=O)N(O)CCCNC(=O)CC(O)(CC(=O)NCCCN(O)C(=O)/C=C/CCCCC)C(=O)O | 1 |
| CC(=O)N(O)CCCCCNC(=O)CCC(=O)N(O)CCCCCNC(=O)CCC(=O)N(O)CCCCCN [DEFEROXAMINE] | 0.92 |
